Here are results for 24 compounds from patent US20260062412A1, “NITROGEN-CONTAINING HETEROCYCLIC COMPOUND HAVING MYT1 INHIBITORY ACTIVITY” (CHUGAI SEIYAKU KABUSHIKI KAISHA, priority 2023, published 2026).

Broadly, the IC50 is the midpoint of a concentration-inhibition curve.

Structures can show the parent of a compound that is named as a salt.

The target in assay [1] is T1, MYT1 protein (Homo sapiens (Human), UniProt Q99640). Kind of assay: Test for binding to ATP binding site of MYT1 (Kinase Tracer 178 / Eu-Anti-GST antibody TR-FRET). The following applies: ATP binding site of MYT1, 30 minutes at room temperature. (Time-resolved FRET reads energy transfer from a long-lived donor to a nearby acceptor.)
T1 sequence (Q99640 whole entry): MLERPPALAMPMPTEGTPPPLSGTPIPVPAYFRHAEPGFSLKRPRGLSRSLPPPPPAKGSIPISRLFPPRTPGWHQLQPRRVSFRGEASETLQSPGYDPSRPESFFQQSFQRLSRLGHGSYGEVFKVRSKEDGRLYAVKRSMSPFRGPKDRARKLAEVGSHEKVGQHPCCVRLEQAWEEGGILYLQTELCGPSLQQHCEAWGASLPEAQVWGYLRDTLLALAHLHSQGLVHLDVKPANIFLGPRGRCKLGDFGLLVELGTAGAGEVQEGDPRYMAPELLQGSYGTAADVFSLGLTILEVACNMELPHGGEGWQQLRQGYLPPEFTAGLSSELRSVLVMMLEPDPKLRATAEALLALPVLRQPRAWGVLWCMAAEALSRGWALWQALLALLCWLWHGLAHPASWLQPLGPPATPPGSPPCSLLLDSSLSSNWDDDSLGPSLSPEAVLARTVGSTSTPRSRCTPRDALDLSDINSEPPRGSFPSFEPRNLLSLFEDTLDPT
In assay [2] the target is T1, MYT1 protein. Kind of assay: MYT1 kinase activity inhibition test (ELISA, phosphorylation of Y15 of CDK1). The format is biochemical. The following applies: phosphorylation level of Y15 of CDK1 protein caused by MYT1 protein, 60 minutes. The protocol: The MYT1 kinase activity inhibitory capacity of each compound was evaluated by evaluating the phosphorylation level of Y15 of CDK1 protein caused by MYT1 protein, by ELISA. The kit of CycLex Weel Kinase Assay/Inhibitor Screening Kit Ver. 3 (manufactured by MBL, CY-1172V3) was used. Using Kinase Buffer, 10 μL of 5 nM MYT1 protein (manufactured by Carna Biosciences, Inc.) was prepared. In addition, 30 μL of 83.3 μM of ATP was prepared using Kinase Buffer. In addition, 10 μL of each compound was diluted to each concentration using Kinase Buffer. 30 μL of ATP was added to the plate of the kit, and thereafter, 10 μL of each compound was added thereto. Further, 10 μL of the diluted MYT1 protein solution was added thereto, and then the mixture was mixed, which was allowed to stand at room temperature for 60 minutes. The reaction solution was removed from each well, and each well was washed using Wash Buffer. After Wash Buffer was removed, 100 μL of HRP conjugated Anti-phospho-tyrosine antibody was added to each well, which was allowed to stand at room temperature for 60 minutes. Thereafter, the reaction solution was removed from each well, and each well was washed using Wash Buffer. After Wash Buffer was removed, 100 μL of Substrate Reagent was added to each well, which was allowed to stand at room temperature for 8 minutes. Thereafter, 100 μL of Stop Solution (1 N sulfuric acid) was added to each well according to the manual. Absorbances at 450 nm and 590 nm were measured using Envision (manufactured by PerkinElmer). The phosphorylation level of CDK1 protein was evaluated for each well by subtracting the absorbance at 590 nm from the absorbance at 450 nm. The inhibition rate of each compound added at each concentration was calculated by setting the signal when the compound was not added as 100% and the signal when MYT1 protein was not added as 0%, and the calculation results of IC50 were shown in Table 4.
In general terms: An ELISA detects its analyte on a solid surface through an enzyme-linked reagent.

Assay [3] relates to LU65. Put plainly: Cytotoxicity test with pemetrexed upon addition of each example compound (CellTiter-Glo). The class given is cell-based, human. Particulars: combination with pemetrexed, LU65 cells, 7 days; maximum value, at the MYT1 inhibitor and pemetrexed concentrations. The protocol: LU65 (received from human tissue bank (JCRB Cell Bank)) was used in the evaluation of the present invention. LU65 is a lung cancer cell line having a truncated deletion mutation of S82* in RB1 gene (see Nature. 2019 May; 569(7757): 503-508. (Non Patent Literature 22)), in which the function of RB1 is decreased. The cell culture was carried out using RPMI-1640 (manufactured by SIGMA) containing 10% FBS (manufactured by SIGMA).
Each pemetrexed (manufactured by Tokyo Kasei Kogyo Co., Ltd.) and each example compound of each concentration were diluted using a DMSO solution, and 0.04 μL of each of series of dilution and DMSO was added to each well of cell culture plate using Echo 555 Liquid Handler (manufactured by Beckman Coulter Inc.). 1000 LU65 cells ([…]) were added to each well, which was cultured at 37° C. in a 5% CO2 incubator for 7 days. Intracellular ATP level which is a cell survival marker was measured and used in the monitoring of cell number. After culturing, 20 μL of CellTiter-Glo (registered trademark) 2.0 (manufactured by Promega) was added to each well, and the emission intensity was measured using Multimode Plate Reader En Vision (registered trademark) Xcite (manufactured by PerkinElmer). The cell survival rate under each condition was calculated by setting the value obtained by subtracting the luminescence of the cell unseeded well from the luminescence of the DMSO-added well as 100%, and calculating the proportion of a value obtained by subtracting the luminescence of the cell unseeded well from the luminescence detected at each well.
In addition, the cytotoxic activity under each condition was calculated by subtracting the survival rate in a combination of pemetrexed of each treatment concentration and each example compound of each treatment concentration, from 100%.
Background: ATP-based viability assays read luminescence as a measure of living cells.

For `Nc1c(-c2c(F)ccc3[nH]ncc23)c2cc(C3CC3)c3ncccc3c2[nH]c1=O` (racemic) [Compound C156, 3-Amino-6-cyclopropyl-4-(5-fluoro-1H-indazol-4-yl)-1H-1,7-phenanthrolin-2-one], the IC50 in assay [1] amounted to 2.1 nM; in assay [2], 6.2 nM. Besides, the “Bliss Score (Max)” value in assay [3] is reported as 51%. Further, in assay [3], the “HSA Score (MAX)” value was 59%.

Take `Nc1c(-c2ccc(Cl)c3[nH]ncc23)c2cc(Cl)c(Br)cc2[nH]c1=O` [Compound A27, 3-Amino-7-bromo-6-chloro-4-(7-chloro-1H-indazol-4-yl)-1H-quinolin-2-one]: the figures for the IC50 in assay [1] and in assay [2] were 40 nM and 0.52 nM, respectively.

For `Nc1c(-c2ccc(Cl)c3[nH]ncc23)c2cc(Cl)c(OC(F)F)cc2[nH]c1=O` [Compound A30, 3-Amino-6-chloro-4-(7-chloro-1H-indazol-4-yl)-7-(difluoromethoxy)-1H-quinolin-2-one], the values for the IC50 in assay [1] and in assay [2] were 43 nM and 0.71 nM, respectively.

Regarding `Nc1c(-c2cc(F)cc3[nH]ncc23)c2cc(Cl)ccc2[nH]c1=O` [Compound A56, 3-Amino-6-chloro-4-(6-fluoro-1H-indazol-4-yl)-1H-quinolin-2-one], the IC50 in assay [1] was determined as 58 nM; in assay [2], 1.1 nM.

As for `Nc1c(-c2ccc(F)c3[nH]ncc23)c2cc(Cl)ccc2[nH]c1=O` [Compound A57, 3-Amino-6-chloro-4-(7-fluoro-1H-indazol-4-yl)-1H-quinolin-2-one], the IC50 came to 13 nM in assay [1] and 0.61 nM in assay [2].

As to `Nc1c(-c2ccc(Cl)c3[nH]ncc23)c2cc(Cl)ccc2[nH]c1=O` [Compound A59, 3-Amino-6-chloro-4-(7-chloro-1H-indazol-4-yl)-1H-quinolin-2-one], the IC50 in assay [1] was found to be 5.8 nM; in assay [2] it was 0.6 nM. For the same compound, the “Bliss Score (Max)” value in assay [3] came to 55%. In addition, in assay [3], the “HSA Score (MAX)” value is 58%.

With `Cc1ccc(-c2c(N)c(=O)[nH]c3ccc(Cl)cc23)c2cn[nH]c12` [Compound A60, 3-Amino-6-chloro-4-(7-methyl-1H-indazol-4-yl)-1H-quinolin-2-one], the IC50 was 7 nM in assay [1] and 0.55 nM in assay [2].

Consider `Nc1c(-c2ccc(C(F)(F)F)c3[nH]ncc23)c2cc(Cl)ccc2[nH]c1=O` [Compound A61, 3-Amino-6-chloro-4-[7-(trifluoromethyl)-1H-indazol-4-yl]-1H-quinolin-2-one], for which the IC50 stood at 140 nM in assay [1] and 5 nM in assay [2].

`Nc1c(-c2cccc(O)c2)c2ccc3ccccc3c2[nH]c1=O` [Compound B2, 3-Amino-4-(3-hydroxyphenyl)-1H-benzo[h]quinolin-2-one]: the IC50 in assay [1] is 22 nM; in assay [2], 4 nM.

For the compound `Nc1c(-c2cccc(O)c2)c2cc(C3CC3)c3ccccc3c2[nH]c1=O` [Compound B3, 3-Amino-6-cyclopropyl-4-(3-hydroxyphenyl)-1H-benzo[h]quinolin-2-one], in assay [1], the IC50 is 7.3 nM. The compound also showed an IC50 in assay [2] of 0.52 nM. In assay [3], the “Bliss Score (Max)” value is recorded as 78% and the “HSA Score (MAX)” value worked out at 77%.

For `N#Cc1cc2c(-c3cccc(O)c3)c(N)c(=O)[nH]c2c2ccccc12` [Compound B7, 3-Amino-4-(3-hydroxyphenyl)-2-oxo-1H-benzo[h]quinoline-6-carbonitrile], the IC50 in assay [1] came to 6 nM; in assay [2] it was 5.7 nM.

`Nc1c(-c2ccc(F)c3[nH]ncc23)c2cc(C3CC3)c3ccccc3c2[nH]c1=O` [Compound B22, 3-Amino-6-cyclopropyl-4-(7-fluoro-1H-indazol-4-yl)-1H-benzo[h]quinolin-2-one]: in assay [1], the IC50 amounted to 11 nM. Half-maximal inhibition in assay [2] (IC50) was put at 0.25 nM. Further, in assay [3], the “Bliss Score (Max)” value is recorded as 56% and the “HSA Score (MAX)” value stood at 64%.

As for `N#Cc1cc2c(-c3ccc(F)c4[nH]ncc34)c(N)c(=O)[nH]c2c2ccccc12` [Compound B26, 3-Amino-4-(7-fluoro-1H-indazol-4-yl)-2-oxo-1H-benzo[h]quinoline-6-carbonitrile], the IC50 in assay [1] was found to be 10 nM; in assay [2] it was 0.37 nM.

On to `Cc1cc2c(-c3ccc(F)c4[nH]ncc34)c(N)c(=O)[nH]c2c2ccccc12` [Compound B27, 3-Amino-4-(7-fluoro-1H-indazol-4-yl)-6-methyl-1H-benzo[h]quinolin-2-one], for which the IC50 in assay [1] was found to be 7.3 nM; in assay [2] it was 0.21 nM.

Regarding `CP(C)(=O)c1cc2c(-c3ccc(F)c4[nH]ncc34)c(N)c(=O)[nH]c2c2ccccc12` [Compound B31, 3-Amino-6-dimethylphosphoryl-4-(7-fluoro-1H-indazol-4-yl)-1H-benzo[h]quinolin-2-one], the IC50 in assay [1] is 19 nM; in assay [2], 0.32 nM.

Consider `Nc1c(-c2ccc(F)c3[nH]ncc23)c2cc(Cl)c3ccccc3c2[nH]c1=O` [Compound B34, 3-Amino-6-chloro-4-(7-fluoro-1H-indazol-4-yl)-1H-benzo[h]quinolin-2-one], for which the IC50 in assay [1] came out at 33 nM; in assay [2] it was 0.86 nM.

On to `Nc1c(-c2cccc(F)c2)c2ccc3ccccc3c2[nH]c1=O` [Compound B50, 3-Amino-4-(3-fluorophenyl)-1H-benzo[h]quinolin-2-one; hydrochloride], for which the IC50 in assay [1] amounted to 750 nM; in assay [2], 210 nM.

For `Nc1c(-c2cccc3[nH]ncc23)c2cc(Cl)c3ncccc3c2[nH]c1=O` [Compound C79, 3-Amino-6-chloro-4-(1H-indazol-4-yl)-1H-1,7-phenanthrolin-2-one], the IC50 in assay [1] turned out to be 11 nM; in assay [2], 0.3 nM.

Take `Nc1c(-c2cccc(O)c2)c2ccc3ncccc3c2[nH]c1=O` [Compound C184, 3-Amino-4-(3-hydroxyphenyl)-1H-1,7-phenanthrolin-2-one; hydrobromide]: the IC50 in assay [1] is 10 nM; in assay [2] it was less than 4.6 nM.

As to `Nc1c(-c2cccc3[nH]ncc23)c2ccc3ncccc3c2[nH]c1=O` [Compound C186, 3-Amino-4-(1H-indazol-4-yl)-1H-1,7-phenanthrolin-2-one], the IC50 in assay [1] was 6.8 nM; in assay [2] it was 3.9 nM.

`Nc1c(-c2ccc(F)c3[nH]ncc23)c2cc(C3CC3)c3ccsc3c2[nH]c1=O` [Compound L3, 7-Amino-4-cyclopropyl-6-(7-fluoro-1H-indazol-4-yl)-9H-thieno[3,2-h]quinolin-8-one] gave an IC50 in assay [1] of 2.3 nM. For the same compound, in assay [3], the “Bliss Score (Max)” value was determined as 51% and the “HSA Score (MAX)” value came out at 61%.

Compound `Cn1cnc2c3[nH]c(=O)c(N)c(-c4ccc(F)c5[nH]ncc45)c3cc(C3CC3)c21` [Compound M4, 7-Amino-4-cyclopropyl-6-(7-fluoro-1H-indazol-4-yl)-3-methyl-9H-imidazo[4,5-h]quinolin-8-one] registered an IC50 in assay [1] of 19 nM. Also, in assay [3], the “Bliss Score (Max)” value is given as 51% and the “HSA Score (MAX)” value is recorded as 60%.

On to `Nc1c(-c2ccc(F)c3[nH]ncc23)c2cc(C3CC3)c3scnc3c2[nH]c1=O` [Compound N2, 7-Amino-4-cyclopropyl-6-(7-fluoro-1H-indazol-4-yl)-9H-[1,3]thiazolo[5,4-h]quinolin-8-one], for which, in assay [1], the IC50 stood at 3.3 nM. Moreover, in assay [3], the “Bliss Score (Max)” value is recorded as 50% and the “HSA Score (MAX)” value is on record as 57%.

`Cc1nc2c(-c3ccc(F)c4[nH]ncc34)c(N)c(=O)[nH]c2c2cccnc12` [Compound O1, 3-Amino-4-(7-fluoro-1H-indazol-4-yl)-6-methyl-1H-pyrido[2,3-h][1,5]naphthyridin-2-one] displayed an IC50 in assay [1] of 1.1 nM. Further, in assay [3], the “Bliss Score (Max)” value came to 37% and the “HSA Score (MAX)” value is 44%.
